Data on six compounds can be found in patent publication US20110166136A1, “Calcium Ion Channel Modulators & Uses Thereof” (LECTUS THERAPEUTICS LIMITED, priority 2008, published 2011).

The target in one assay is T1, N-type/Cav2.2 channels (Homo sapiens, UniProt Q00975).
T1 construct: Primary dorsal root ganglion neurons were isolated using standard techniques; endogenous in cells
The experiment in a line: Whole-cell patch-clamp recording of barium currents carried by calcium channels in primary dorsal root ganglion neurons. Type of assay: cell-based. The note with it: 0.5 Hz stimulation, 100-ms steps to 0 mV from -70 mV, DRG neurons with Cm <40 pf. On the procedure: Primary dorsal root ganglion neurons were isolated using standard techniques and placed in Ca^2+/Mg^2+ free phosphate-buffered saline (PBS). Hemisection of the spinal column and cord was performed and the ganglia were uncovered by gently lifting the spinal cord. They were placed in a dissociation solution (PBS) containing 1 mg/ml Collagenase (type XI) and trypsin (type II-S). Ganglia were incubated in the dissociation solution for 20 minutes at room temperature, followed by 20 minutes at 37° C. Ganglia were washed in culture medium, Dulbecco's Minimum essential medium (DMEM), supplemented with fetal calf serum (10%, Gibco), penicillin/strepromycin and glutamine (Glutamax, Gibco). Cells were dispersed by trituration and plated on poly-L-lysine-coated 35-mm dishes (BD Bioscience). Cells were kept in culture in a humidified atmosphere (37° C., 5% CO2) for up to 4 days for electrophysiological recordings. Unless otherwise noted, all reagents were purchased from Sigma-Aldrich.
Barium currents carried by calcium channels were recorded using the whole-cell configuration of the patch-clamp technique. All experiments were carried out at room temperature. Cells were bathed in an external solution containing, in mM: TEA-CI, 140; BaCl2, 5; MgCl2, 1; HEPES, 10; pH 7.3 adjusted with TEA-OH. Ba^2+ was used as a charge carrier to prevent the run-down caused by Ca^2+-activated inactivation of Ca^2+ channels. […] Electrophysiological recordings were generated and acquired with a patch-clamp amplifier (Axopatch 200B, or Multiclamp 7; Molecular devices) connected to a personal computer. Online and offline analysis was carried out using the pClamp software suite (v.9, Molecular Devices). Compounds were all prepared from 100 mM stocks in 100% dimethyl sulfoxide (DMSO) and further diluted in external solution to achieve the desired final concentration. Final DMSO concentration was always <0.1%. For the assessment of activity of the compounds, only cells with a membrane capacitance (Cm)<40 pf were used, as the Ca2+ current in these cells is carried mostly through N-type/Cav2.2 channels. Cell membrane potential was held at −70 mV and currents were elicited by a series of 100-ms steps to 0 mV, at a frequency of 0.1 Hz. After the establishment of a steady baseline current, the compound was applied to the bath. When the block induced by the compound reached a steady level, the frequency was then increased to 0.5 Hz, to assess use-dependence. After stabilization of the high frequency block, step depolarizations were stopped and cell membrane potential was kept at −70 mV for 100-120 s, after which 0.1 Hz stimulation (100 ms, 0 mV) was elicited, to assess recovery of the block. ω-conotoxin GVIA (100 nM; Alomone labs) was added at the end of the experiment to quantify the remaining N-type current. Selectivity of the compounds over non-N-type currents was studied using similar stimulation protocols, in a bath solution containing ω-conotoxin GVIA (100 nM).

Assay [1] has as its system α2-δ voltage-gated calcium channel. The note with it: compared with gabapentin; cited from earlier work.
Setting [2] is: DRG neuron, compound concentration 1 uM.

T1 sequence (Q00975 whole entry): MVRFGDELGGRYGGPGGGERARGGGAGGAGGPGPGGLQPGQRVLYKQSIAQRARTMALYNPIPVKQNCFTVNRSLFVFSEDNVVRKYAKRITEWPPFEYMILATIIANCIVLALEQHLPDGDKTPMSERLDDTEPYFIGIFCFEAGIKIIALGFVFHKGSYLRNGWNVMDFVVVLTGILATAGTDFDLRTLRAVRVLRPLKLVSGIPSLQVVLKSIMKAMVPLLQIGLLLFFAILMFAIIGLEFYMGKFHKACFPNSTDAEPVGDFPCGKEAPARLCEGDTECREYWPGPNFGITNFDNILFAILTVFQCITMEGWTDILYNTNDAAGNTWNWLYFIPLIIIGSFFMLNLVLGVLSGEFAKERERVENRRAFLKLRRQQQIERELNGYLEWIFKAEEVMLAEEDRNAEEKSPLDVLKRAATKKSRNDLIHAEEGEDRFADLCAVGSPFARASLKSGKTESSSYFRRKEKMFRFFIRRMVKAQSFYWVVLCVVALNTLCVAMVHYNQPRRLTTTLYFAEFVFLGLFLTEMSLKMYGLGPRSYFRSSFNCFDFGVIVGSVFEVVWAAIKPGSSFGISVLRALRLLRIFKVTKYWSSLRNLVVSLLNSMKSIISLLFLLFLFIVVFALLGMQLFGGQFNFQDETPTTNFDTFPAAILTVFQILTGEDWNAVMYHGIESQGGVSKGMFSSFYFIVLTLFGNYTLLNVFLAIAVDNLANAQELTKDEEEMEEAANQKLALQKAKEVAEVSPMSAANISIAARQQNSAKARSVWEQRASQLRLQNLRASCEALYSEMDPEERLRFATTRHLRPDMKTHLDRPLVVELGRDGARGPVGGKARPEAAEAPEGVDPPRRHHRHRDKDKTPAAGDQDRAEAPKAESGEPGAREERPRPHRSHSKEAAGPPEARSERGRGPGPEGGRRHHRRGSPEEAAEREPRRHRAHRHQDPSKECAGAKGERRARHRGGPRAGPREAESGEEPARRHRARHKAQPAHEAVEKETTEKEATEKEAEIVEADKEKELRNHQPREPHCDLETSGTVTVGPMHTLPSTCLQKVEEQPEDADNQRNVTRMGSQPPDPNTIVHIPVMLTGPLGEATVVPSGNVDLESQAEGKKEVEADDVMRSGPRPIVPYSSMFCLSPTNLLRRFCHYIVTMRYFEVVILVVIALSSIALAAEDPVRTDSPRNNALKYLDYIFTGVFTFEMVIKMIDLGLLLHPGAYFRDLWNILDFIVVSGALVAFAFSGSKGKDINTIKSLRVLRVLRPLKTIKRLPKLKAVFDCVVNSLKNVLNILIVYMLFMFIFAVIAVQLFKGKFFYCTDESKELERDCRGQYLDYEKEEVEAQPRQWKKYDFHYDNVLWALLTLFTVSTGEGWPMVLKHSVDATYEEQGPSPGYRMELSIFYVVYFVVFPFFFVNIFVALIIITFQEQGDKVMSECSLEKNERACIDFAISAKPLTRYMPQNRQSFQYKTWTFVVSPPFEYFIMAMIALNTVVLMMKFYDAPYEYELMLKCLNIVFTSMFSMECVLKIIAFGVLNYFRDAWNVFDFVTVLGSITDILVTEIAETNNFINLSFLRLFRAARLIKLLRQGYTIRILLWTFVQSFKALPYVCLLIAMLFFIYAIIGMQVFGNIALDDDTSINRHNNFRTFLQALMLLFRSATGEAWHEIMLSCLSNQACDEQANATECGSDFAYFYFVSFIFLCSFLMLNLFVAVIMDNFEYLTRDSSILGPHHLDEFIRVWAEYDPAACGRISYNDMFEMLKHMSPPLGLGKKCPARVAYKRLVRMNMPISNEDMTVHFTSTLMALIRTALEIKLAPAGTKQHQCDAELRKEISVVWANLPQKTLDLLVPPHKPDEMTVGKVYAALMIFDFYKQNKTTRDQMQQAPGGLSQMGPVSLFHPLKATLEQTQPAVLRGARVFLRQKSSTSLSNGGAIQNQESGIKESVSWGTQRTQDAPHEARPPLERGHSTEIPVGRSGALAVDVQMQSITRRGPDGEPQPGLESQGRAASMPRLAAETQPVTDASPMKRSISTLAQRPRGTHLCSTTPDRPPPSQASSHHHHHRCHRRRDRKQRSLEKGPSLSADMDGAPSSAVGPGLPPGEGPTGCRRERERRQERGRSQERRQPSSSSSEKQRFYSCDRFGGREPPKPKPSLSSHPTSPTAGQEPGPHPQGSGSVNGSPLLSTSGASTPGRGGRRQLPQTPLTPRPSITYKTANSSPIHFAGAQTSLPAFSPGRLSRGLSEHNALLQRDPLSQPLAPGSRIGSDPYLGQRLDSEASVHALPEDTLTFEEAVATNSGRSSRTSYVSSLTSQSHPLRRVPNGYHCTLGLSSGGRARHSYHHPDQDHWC
T1 sequence (P54289 25-956 partner limits assumed): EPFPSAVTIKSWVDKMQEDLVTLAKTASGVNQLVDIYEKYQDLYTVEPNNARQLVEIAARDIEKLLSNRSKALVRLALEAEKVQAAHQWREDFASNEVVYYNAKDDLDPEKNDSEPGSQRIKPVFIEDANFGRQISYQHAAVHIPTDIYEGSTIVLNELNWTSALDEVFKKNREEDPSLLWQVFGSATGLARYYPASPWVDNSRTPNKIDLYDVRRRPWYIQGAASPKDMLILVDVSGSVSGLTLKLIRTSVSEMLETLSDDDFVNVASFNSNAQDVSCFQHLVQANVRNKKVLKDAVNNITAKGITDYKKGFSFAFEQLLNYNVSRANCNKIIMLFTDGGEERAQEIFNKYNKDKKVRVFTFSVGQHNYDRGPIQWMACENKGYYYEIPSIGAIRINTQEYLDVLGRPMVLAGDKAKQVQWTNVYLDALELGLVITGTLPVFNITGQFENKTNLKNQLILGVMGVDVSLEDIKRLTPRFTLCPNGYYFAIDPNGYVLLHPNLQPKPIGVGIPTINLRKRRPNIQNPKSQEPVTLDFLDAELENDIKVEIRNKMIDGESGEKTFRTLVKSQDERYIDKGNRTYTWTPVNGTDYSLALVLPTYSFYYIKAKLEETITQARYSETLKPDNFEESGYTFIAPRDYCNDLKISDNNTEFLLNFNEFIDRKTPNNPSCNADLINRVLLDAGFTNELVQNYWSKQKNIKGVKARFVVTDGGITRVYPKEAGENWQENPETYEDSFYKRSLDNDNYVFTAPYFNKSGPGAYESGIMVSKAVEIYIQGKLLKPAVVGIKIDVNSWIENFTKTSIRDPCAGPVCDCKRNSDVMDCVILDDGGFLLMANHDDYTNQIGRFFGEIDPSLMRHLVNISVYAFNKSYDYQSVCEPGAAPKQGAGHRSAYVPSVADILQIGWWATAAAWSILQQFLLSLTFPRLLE
T1 sequence (P54289 957-1103 partner limits assumed): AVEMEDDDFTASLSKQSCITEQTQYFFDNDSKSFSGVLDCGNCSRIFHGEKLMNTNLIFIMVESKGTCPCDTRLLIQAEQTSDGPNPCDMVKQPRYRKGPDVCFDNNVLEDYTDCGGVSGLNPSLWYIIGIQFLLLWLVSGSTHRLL

Turning to `COc1ccc2c(C(=O)C(=O)N3CCOCC3)c[nH]c2c1` [Compound 57, 1-(6-methoxy-1H-indol-3-yl)-2-morpholinoethane-1,2-dione], the inhibition (usually the drop in the measured response relative to a control, in per cent) at 1 µM at N-type/Cav2.2 channels (setting [2]) worked out at 44%. Still for that read-out and setting: for `COc1ccc2c(C(=O)C(=O)N3CCN(C)CC3)c[nH]c2c1` [Compound 77, 1-(6-methoxy-1H-indol-3-yl)-2-(4-methylpiperazin-1-yl)ethane-1,2-dione] the value was 55%; for `O=C(O)C(=O)c1c[nH]c2cc(F)ccc12` [Compound 20, 2-(6-fluoro-1H-indol-3-yl)-2-oxoacetic acid], 55%. In the case of “ethyl 2-(6-methoxy-1H-indol-3-yl)-2-oxoacetate [Compound 40]”, the % Inhibition (usually the percentage by which the read-out fell short of the control) at 0.5 Hz at N-type/Cav2.2 channels (compound concentration 1 uM) amounted to 57%. Consider `CC(C)C[C@H](CN)CC(=O)O` [Pregabalin, pregabalin], for which the “potency in binding affinity to the α2-δ voltage-gated calcium channel relative to gabapentin” value in assay [1] is “six-times more potent than gabapentin”.

In the case of `COc1ccc2c(C(=O)C(=O)O)c[nH]c2c1` [Compound 31, 2-(6-methoxy-1H-indol-3-yl)-2-oxoacetic acid], the inhibition at 0.1 µM on N-type/Cav2.2 channels (DRG neuron, compound concentration 0.1 uM) was found to be 36%.
